The text below walks through data of paper PMC13194776, “Small-molecule binding and sensing with a designed protein family” (Nature Communications, 2026).

Where only a bound is given, the exact number is not on record here.

One test has as its target T1, ohp1952.
T1 construct: N-terminal hexahistidine tag; original design
Briefly: Fluorescence polarization cross-reactivity assay with TAMRA-labelled ligands at 5 nM (HCY, OHP, WRF) or 10 nM (SN-38) titrated with binder or albumin. The test is classed as binding. Conditions: read-out: KD (μM), specificity table, TAMRA-labelled targets. From the text:
(§1) measured against all six targets. Raw binding traces can be found in Supplementary
For orientation: In fluorescence polarisation assays a small probe gives low polarisation when free and higher when bound to something large.

Test [1] deals with T2, hcy129.1.
T2 construct: N-terminal hexahistidine tag; 4 mutations compared to the original design
The test is described as above. The test is classed as binding. To be noted: read-out: KD (μM), specificity table, TAMRA-labelled targets.
Excerpt: as §1

The target of test [2] is T3, roc22182.1.
T3 construct: N-terminal hexahistidine tag; 9 mutations compared to the original design
Described as above. Conditions: read-out: KD (μM), specificity table, TAMRA-labelled targets. The test is classed as binding.
Excerpt: as §1

The target in test [3] is T4, iri807.1.
T4 construct: N-terminal hexahistidine tag; 3 mutations compared to the original design
Described as above. To be noted: read-out: KD (μM), specificity table, TAMRA-labelled targets. The test is classed as binding.
Excerpt: as §1

The next test concerns the target T5, albumin.
T5 construct: control protein
Described as above. The test is classed as binding. To be noted: read-out: KD (μM), specificity table, TAMRA-labelled targets.
Excerpt: as §1

In the next test the target is T6, apx2592.
T6 construct: N-terminal hexahistidine tag; original design
As to the kind of experiment: Isothermal titration calorimetry at 25 °C with warfarin or apixaban, 5% DMSO in all solutions, single-site binding model. Conditions: read-out: KD (μM), ITC, warfarin and apixaban. The protocol:
(§2) Binding affinity of designed proteins was assessed by titrating purified protein with ligand using a microcal PEAQ ITC-Automated instrument. Both protein and ligand were prepared in identical buffers that were degassed by bottle-top filtration. […] All titrations were performed at 25 °C and 19 total injections, 0.4 μL for the first injection and 2 μL for the remaining 18. Resulting titration data were analyzed with the Malvern Panalytical ITC Analysis software, and a single-site binding model was used to fit the resulting data.

For the next test, the target named is T7, apx1493.
T7 construct: N-terminal hexahistidine tag; original design
The test is described as above. Conditions: read-out: KD (μM), ITC, warfarin and apixaban. The protocol:
as §2

For a further test, the target named is T8, apx1049.
T8 construct: N-terminal hexahistidine tag; original design
Described as above. To be noted: read-out: KD (μM), ITC, warfarin and apixaban. The protocol:
as §2

The next test has as its target T9, apx1501.
T9 construct: N-terminal hexahistidine tag; original design
The test is described as above. Conditions: read-out: KD (μM), ITC, warfarin and apixaban. The method, then: as §2

The target of another test is T10, hcy129.1_CID.
T10 construct: 7 mutations compared to the original design
As to the kind of experiment: Isothermal titration calorimetry at 25 °C with cortisol, 1% DMSO in all solutions, single-site binding model. Conditions: read-out: KD (μM), ITC, cortisol. The protocol: as §2
(§3) Supplementary Table 2. Small-molecule binding characterization results
(§4) Target Design name Number of KD (μM) KD determination
In general terms: In ITC the heat of successive injections is recorded.

Test [4] addresses T2, hcy129.1. Described as above. Conditions: read-out: KD (μM), ITC, cortisol. The method, then:
as §2, §3, §4

The next test has as its target T11, hcy129.
T11 construct: N-terminal hexahistidine tag; original design
The description is as above. Conditions: read-out: KD (μM), ITC, cortisol. The protocol:
as §2, §3, §4

Another test has as its target T12, hcy129_mpnn5.
T12 construct: ProteinMPNN surface-redesigned version; 9 mutations compared to the original design as printed
The test is described as above. To be noted: read-out: KD (μM), ITC, cortisol. The method, then:
as §2, §3, §4

The target of test [5] is T2, hcy129.1. Briefly: Isothermal titration calorimetry of purified designs with unlabelled ligand at 25 °C, single-site fit; 1% DMSO for cortisol, 5% DMSO for warfarin and apixaban, HEPES pH 8 for rocuronium. The test is classed as binding. Conditions: read-out: KD (μM) ITC. The protocol: Characterization of binding affinity by ITC
as §2

Test [6] deals with hcy129.1_CID-SmBiT and miniH11_LgBiT. As to the kind of experiment: Cortisol-induced dimerization NanoBiT luminescent sensor. The test is classed as biochemical. Conditions: sensor components 200 nM each, 2 h, DTZ 25 μM; estimated; read-out: EC50 of luminescent signal.
For a further test, the target named is T13, roc22182.
T13 construct: N-terminal hexahistidine tag; original design
Briefly: Isothermal titration calorimetry at 25 °C with rocuronium in 20 mM HEPES, 50 mM NaCl, pH 8, no DMSO, single-site binding model. Conditions: read-out: KD (μM), ITC, rocuronium. The protocol:
as §2, §3, §4

The target of test [7] is T3, roc22182.1. The description is as above. To be noted: read-out: KD (μM), ITC, rocuronium. The method, then:
as §2, §3, §4

For a further test, the target named is T14, wrf929.
T14 construct: N-terminal hexahistidine tag; original design
Briefly: Isothermal titration calorimetry at 25 °C with warfarin or apixaban, 5% DMSO in all solutions, single-site binding model. To be noted: read-out: KD (μM), ITC, warfarin and apixaban. The protocol:
as §2, §3, §4

For test [8], the target named is T15, wrf1071.
T15 construct: N-terminal hexahistidine tag; original design
Described as above. Conditions: read-out: KD (μM), ITC, warfarin and apixaban. The method, then: as §2

Test [9] can be described thus: Cross-reactivity FP binding to SN-38-TAMRA. Conditions: SN-38-TAMRA 10 nM. The protocol:
(§5) Two-fold serial dilutions of the binder protein were prepared in 24 wells with constant amounts of the target ligand, and the plate was incubated at room temperature, shaking for at least 30 min. Fluorescence polarization filter cube (Red FP, EX 530/25 nm;EM 590/35 nm, Agilent) was used to measure polarization with the plate reader (Synergy Neo2, Biotek). A binding isotherm model was used to fit the data and estimate KD.
(§6) We performed an all by all binding experiment between all targets and representative binders for each target. […] Fluorescence polarization filter cube (Red1 FP, EX 530/25 nm;EM 590/35 nm, Agilent) was used to measure polarization. […] Biotinylated APX and ROC were immobilized to the Streptavidin biosensor and all binders were titrated 3-fold starting from 25uM. Other experimental conditions were kept the same as described above for characterization using FP and BLI.

The nature of test [10]: Cross-reactivity FP binding to HCY-TAMRA. To be noted: HCY-TAMRA 5 nM. The protocol:
as §5, §6

Test [11] can be described thus: Cross-reactivity BLI binding to ROC-Biotin. To be noted: ROC-Biotin immobilized, binders titrated 3-fold from 25uM. The method, then:
(§7) Biolayer interferometry (BLI) was used to estimate the binding affinity and screen for binding of the purified proteins and target small-molecules APX, and SN-38. […] 1 μM of small-molecule targets with biotin conjugated (APX-Biotin and SN-38-Biotin) were used as ligands to be immobilized to the Octet Streptavidin biosensors (Sartorius). Titration experiments were performed at 25 °C, and the kinetic response data was collected using Octet RED96 and R8 (ForteBio). The resulting responses of the analytes were corrected using the signal from the reference buffer, and further analysis was performed using the Octet Data Analysis software.
as §6

Test [12] in a line: Cross-reactivity FP binding to OHP-TAMRA. To be noted: OHP-TAMRA 5 nM. The method, then: as §5, §6
Test [13] in a line: Cross-reactivity BLI binding to APX-Biotin. To be noted: APX-Biotin immobilized, binders titrated 3-fold from 25uM. The method, then: as §7, §6
In general terms: Biolayer interferometry detects binding as a change in optical thickness at a sensor tip.

The target in test [14] is T15, wrf1071. Briefly: Fluorescence polarization cross-reactivity assay with TAMRA-labelled ligands at 5 nM (HCY, OHP, WRF) or 10 nM (SN-38) titrated with binder or albumin. It is filed as binding. Conditions: read-out: KD (μM), specificity table, TAMRA-labelled targets.
Excerpt: as §1

In another test the target is T16, iri807.
T16 construct: N-terminal hexahistidine tag; original design
As to the kind of experiment: Fluorescence polarization with 6 nM fluorophore-labelled OHP-AF488 or SN-38-TAMRA titrated with binder protein in PBS at room temperature, binding isotherm fit. Conditions: read-out: KD (μM), FP. The protocol: (§8) Two-fold serial dilutions of the binder protein were prepared in 24 wells with constant amounts of the target ligand, and the plate was incubated at room temperature, shaking for at least 30 min. […] A binding isotherm model was used to fit the data and estimate KD.
as §3, §4

The next test addresses T17, iri3009.
T17 construct: N-terminal hexahistidine tag; original design
The description is as above. Conditions: read-out: KD (μM), FP. The protocol:
as §8, §3, §4

For test [15], the target named is T4, iri807.1. The test is described as above. To be noted: read-out: KD (μM), FP. The method, then:
as §8, §3, §4

A further test concerns the target T18, iri807.3.
T18 construct: N-terminal hexahistidine tag; 3 mutations compared to the original design
The test is described as above. To be noted: read-out: KD (μM), FP. The method, then: as §8, §3, §4

In the next test the target is T19, iri807.2.
T19 construct: N-terminal hexahistidine tag; 3 mutations compared to the original design
Described as above. Conditions: read-out: KD (μM), FP. The protocol:
as §8, §3, §4

With “17α-hydroxyprogesterone-TAMRA (TAMRA conjugate) [OHP-TAMRA]”, the dissociation constant Kd – broadly, the concentration at which binding is half-saturated – stood at 0.005 µM at ohp1952; 0.005 µM at hcy129.1 [1]; 0.078 µM on roc22182.1 [2]; 0.27 µM at iri807.1 [3]; 52 µM on albumin.
Take `COc1ccc(-n2nc(C(N)=O)c3c2C(=O)N(c2ccc(N4CCCCC4=O)cc2)CC3)cc1` [apixaban, apixaban (APX)]: the Kd at apx2592 stood at 3.16 µM; at apx1493, 9.67 µM; at apx1049, 0.679 µM; at apx1501, 5.5 µM.
As for `C[C@]12CCC(=O)C=C1CC[C@@H]1[C@@H]2[C@@H](O)C[C@@]2(C)[C@H]1CC[C@]2(O)C(=O)CO` [cortisol, cortisol (HCY)], the equilibrium dissociation constant (Kd) at hcy129.1_CID amounted to 0.064 µM; on hcy129.1 [4] it was 0.065 µM; on hcy129, 2.3 µM; on hcy129_mpnn5 it was 3.4 µM; at hcy129.1 [5], 0.068 µM.
For the molecule `C[C@]12CCC(=O)C=C1CC[C@@H]1[C@@H]2[C@@H](O)C[C@@]2(C)[C@H]1CC[C@]2(O)C(=O)CO` [cortisol], in [6], the EC50 (commonly the midpoint of the concentration-response curve) was 72 nM.
`C=CC[N+]1([C@H]2C[C@H]3[C@@H]4CC[C@H]5C[C@H](O)[C@@H](N6CCOCC6)C[C@]5(C)[C@H]4CC[C@]3(C)[C@H]2OC(C)=O)CCCC1` [rocuronium, rocuronium (ROC)]: the Kd is more than 50 µM on roc22182 and more than 4 µM on roc22182.1 [7].
With `CC(=O)CC(c1ccccc1)c1c(O)c2ccccc2oc1=O` (stereo not drawn) [warfarin, warfarin (WRF)], the dissociation constant Kd worked out at 5.9 µM at wrf929 and 0.83 µM at wrf1071 [8].
For “Albumin: control protein known for promiscuous binding to hydrophobic ligands; bovine serum albumin per b230”, the “Binding affinity KD” value in [9] is “No binding”; in test [9] (listed as albumin) it was “no binding”; in test [10], “No binding”; in [10] (listed as albumin), “no binding”; in [11], “No binding”; in test [11] (listed as albumin) it was “no binding”. Moreover, the “Binding affinity KD” value in [12] is “weak binding”; in test [13], “No binding”; in test [13] (listed as albumin) it was “no binding”.
Take “SN-38-TAMRA (fluorophore linker conjugate of SN-38)”: the Kd was found to be 42 µM on wrf1071 [14]; 0.048 µM on iri807.1 [3]; 0.09 µM on iri807; 1.41 µM on iri3009; 0.059 µM at iri807.1 [15]; 0.016 µM at iri807.3. Also, the dissociation constant Kd on iri807.2 amounted to 0.063 µM.
On to “cortisol-TAMRA (TAMRA conjugate of cortisol) [HCY-TAMRA]”, for which the Kd at wrf1071 [14] was determined as 67 µM; on hcy129.1 [1], 0.005 µM; on roc22182.1 [2] it was 1.4 µM; on iri807.1 [3], 26 µM.
